Where two headings read alike, the source gives them in different places.
How the values were obtained:
[1] = Method in brief: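 Each compound (1 uM) is incubated in duplicate with 0.5 mg/mL liver microsomal protein from dog, rat or human plus NADPH-regenerating system. Samples taken at 2, 12, 25, 45 and 65 minutes are deproteinised and quantified by LC/MS/MS. Half-life gives Clint.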
[2] = test system: HIV-1 (IIIB) in MT-4 cells; assay: MT-4 HIV assay; assay type: cell-based; conditions: Human immunodeficiency virus 1, MT4, 120 h; HIV-1 (IIIB), MT-4 cells, 5 days, Cell Titer Glo; read-out: EC50
Method in brief: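 Antiviral activity was read by Cell Titer Glo after a 5-day, 37 °C culture of MT-4 cells pre-infected with a 1:250 dilution of HIV-1 (IIIB). Compounds were tested as threefold dilution series in complete RPMI. Controls were no drug, mock infection and 5 uM AZT.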

[3] = human liver microsomes 0.5 mg/mL, 1 uM compound, NADPH
[4] = rat liver microsomes 0.5 mg/mL, 1 uM compound, NADPH

| Structure (SMILES) | Human Pred Cl. [1, 3] [L/H/kg] | Rat. Pred. Cl. [1, 4] [L/H/kg] | EC50 [2] [nM] | Human Pred Cl. ([1]; human, microsomes) [L/H/kg] | Rat. Pred. Cl. ([1]; rat, microsomes) [L/H/kg] | Dog. Pred. Cl. ([1]; dog, microsomes) [L/H/kg] |
| --- | --- | --- | --- | --- | --- | --- |
| COC(=O)N[C@H](C(=O)N[C@@H](Cc1ccc(C#Cc2ccc(N3CCN(C4COC4)CC3)nc2)cc1)[C@@H](O)CN(Cc1c(F)cc(-c2cc(F)ccn2)cc1F)NC(=O)[C@@H](NC(=O)OC)C(C)(C)C(F)(F)F)C(C)(C)C(F)(F)F [Example 98, Methyl ((5S,8S,9S,14S)-11-(2,6-difluoro-4-(4-fluoropyridin-2-yl)benzyl)-16,16,16-trifluoro-9-hydroxy-15,15-dimethyl-8-(4-((6-(4-(oxetan-3-yl)piperazin-1-yl)pyridin-3-yl)ethynyl)benzyl)-3,6,13-trioxo-5-(1,1,1-trifluoro-2-methylpropan-2-yl)-2-oxa-4,7,11,12-tetraazahexadecan-14-yl)carbamate] | 0.26 | 0.65 | 4.97 | – | – | – |
| COC(=O)N[C@H](C(=O)N[C@@H](Cc1ccc(C#Cc2ccc(N3CC4CCC(C3)N4C3COC3)nc2)cc1)[C@@H](O)CN(Cc1c(F)cc(-c2ccc(C(F)F)cn2)cc1F)NC(=O)[C@@H](NC(=O)OC)C(C)(C)C(F)(F)F)C(C)(C)C(F)(F)F [Example 99, Methyl ((5S,8S,9S,14S)-11-(4-(5-(difluoromethyl)pyridin-2-yl)-2,6-difluorobenzyl)-16,16,16-trifluoro-9-hydroxy-15,15-dimethyl-8-(4-((6-(8-(oxetan-3-yl)-3,8-diazabicyclo [3.2.1]octan-3-yl)pyridin-3-yl)ethynyl)benzyl)-3,6,13-trioxo-5-(1,1,1-trifluoro-2-methylpropan-2-yl)-2-oxa-4,7,11,12-tetraazahexadecan-14-yl)carbamate] | – | – | 7.96 | <0.11 | 0.26 | – |
| COC(=O)N[C@H](C(=O)N[C@@H](Cc1ccc(C#Cc2ccc(N3CC4CCC(C3)N4C3COC3)nc2)cc1)[C@@H](O)CN(Cc1c(F)cc(-c2ccc(F)cn2)cc1F)NC(=O)[C@@H](NC(=O)OC)C(C)(C)C(F)(F)F)C(C)(C)C(F)(F)F [Example 102, Methyl ((5S,8S,9S,14S)-11-(2,6-difluoro-4-(5-fluoropyridin-2-yl)benzyl)-16,16,16-trifluoro-9-hydroxy-15,15-dimethyl-8-(4-((6-(8-(oxetan-3-yl)-3,8-diazabicyclo [3.2.1]octan-3-yl)pyridin-3-yl)ethynyl)benzyl)-3,6,13-trioxo-5-(1,1,1-trifluoro-2-methylpropan-2-yl)-2-oxa-4,7,11,12-tetraazahexadecan-14-yl)carbamate] | – | – | 5.68 | 0.18 | <0.18 | – |
| COC(=O)N[C@H](C(=O)N[C@@H](Cc1ccc(C#Cc2cnc(N3CCN(C4COC4)CC3)nc2)cc1)[C@@H](O)CN(Cc1c(F)cc(-c2cnn(C(F)F)c2)cc1F)NC(=O)[C@@H](NC(=O)OC)C(C)(C)C(F)(F)F)C(C)(C)C(F)(F)F [Example 103, Methyl ((5S,8S,9S,14S)-11-(4-(1-(difluoromethyl)-1H-pyrazol-4-yl)-2,6-difluorobenzyl)-16,16,16-trifluoro-9-hydroxy-15,15-dimethyl-8-(4-((2-(4-(oxetan-3-yl)piperazin-1-yl)pyrimidin-5-yl)ethynyl)benzyl)-3,6,13-trioxo-5-(1,1,1-trifluoro-2-methylpropan-2-yl)-2-oxa-4,7,11,12-tetraazahexadecan-14-yl)carbamate] | 0.16 | 0.32 | 4.84 | – | – | – |
| COC(=O)N[C@H](C(=O)NN(Cc1c(F)cc(-c2ccc(F)cn2)cc1F)C[C@H](O)[C@H](Cc1ccc(C#Cc2ccc(N3CC4CCC(C3)N4C3COC3)nc2)cc1)NC(=O)[C@@H](NC(=O)OC)C(C)(C)C(F)(F)F)C(C)(C)C [Example 105, Methyl ((5S,8S,9S,14S)-11-(2,6-difluoro-4-(5-fluoropyridin-2-yl)benzyl)-9-hydroxy-15,15-dimethyl-8-(4-((6-(8-(oxetan-3-yl)-3,8-diazabicyclo [3.2.1]octan-3-yl)pyridin-3-yl)ethynyl)benzyl)-3,6,13-trioxo-5-(1,1,1-trifluoro-2-methylpropan-2-yl)-2-oxa-4,7,11,12-tetraazahexadecan-14-yl)carbamate] | – | – | 3.16 | 0.39 | – | – |
| COC(=O)N[C@H](C(=O)NN(Cc1c(F)cc(-c2cnccn2)cc1F)C[C@H](O)[C@H](Cc1ccc(C#Cc2ccc(N3CC4CCC(C3)N4C3COC3)nc2)cc1)NC(=O)[C@@H](NC(=O)OC)C(C)(C)C(F)(F)F)C(C)(C)C [Example 107, Methyl ((5S,8S,9S,14S)-11-(2,6-difluoro-4-(pyrazin-2-yl)benzyl)-9-hydroxy-15,15-dimethyl-8-(4-((6-(8-(oxetan-3-yl)-3,8-diazabicyclo[3.2.1]octan-3-yl)pyridin-3-yl)ethynyl)benzyl)-3,6,13-trioxo-5-(1,1,1-trifluoro-2-methylpropan-2-yl)-2-oxa-4,7,11,12-tetraazahexadecan-14-yl)carbamate] | – | – | 2.23 | 1.1 | – | – |
| COC(=O)N[C@H](C(=O)N[C@@H](Cc1ccc(C#Cc2ccc(N3CCN(C4CCOC4)CC3)nc2)cc1)[C@@H](O)CN(Cc1c(F)cc(-c2cnn(C(F)F)c2)cc1F)NC(=O)[C@@H](NC(=O)OC)C(C)(C)C(F)(F)F)C(C)(C)C(F)(F)F (stereo partly drawn) [Example 114, Methyl ((5S,8S,9S,14S)-11-(4-(1-(difluoromethyl)-1H-pyrazol-4-yl)-2,6-difluorobenzyl)-16,16,16-trifluoro-9-hydroxy-15,15-dimethyl-3,6,13-trioxo-8-(4-((6-(4-(tetrahydrofuran-3-yl)piperazin-1-yl)pyridin-3-yl)ethynyl)benzyl)-5-(1,1,1-trifluoro-2-methylpropan-2-yl)-2-oxa-4,7,11,12-tetraazahexadecan-14-yl)carbamate] | <0.11 | 0.28 | 5.1 | – | – | – |
| COC(=O)N[C@H](C(=O)N[C@@H](Cc1ccc(C#Cc2ccc(N3CCN(C4CCOCC4)CC3)nc2)cc1)[C@@H](O)CN(Cc1c(F)cc(-c2cnn(C(F)F)c2)cc1F)NC(=O)[C@@H](NC(=O)OC)C(C)(C)C(F)(F)F)C(C)(C)C(F)(F)F [Example 115, Methyl ((5S,8S,9S,14S)-11-(4-(1-(difluoromethyl)-1H-pyrazol-4-yl)-2,6-difluorobenzyl)-16,16,16-trifluoro-9-hydroxy-15,15-dimethyl-3,6,13-trioxo-8-(4-((6-(4-(tetrahydro-2H-pyran-4-yl)piperazin-1-yl)pyridin-3-yl)ethynyl)benzyl)-5-(1,1,1-trifluoro-2-methylpropan-2-yl)-2-oxa-4,7,11,12-tetraazahexadecan-14-yl)carbamate] | 0.12 | <0.18 | 3.19 | – | – | – |
| COC(=O)N[C@H](C(=O)N[C@@H](Cc1ccc(C#Cc2cnc(N3CC4CCC(C3)N4C3COC3)nc2)cc1)[C@@H](O)CN(Cc1c(F)cc(-c2cnc(C)nc2)cc1F)NC(=O)[C@@H](NC(=O)OC)C(C)(C)C(F)(F)F)C(C)(C)C(F)(F)F [Example 119, Methyl ((5S,8S,9S,14S)-11-(2,6-difluoro-4-(2-methylpyrimidin-5-yl)benzyl)-16,16,16-trifluoro-9-hydroxy-15,15-dimethyl-8-(4-((2-(8-(oxetan-3-yl)-3,8-diazabicyclo[3.2.1]octan-3-yl)pyrimidin-5-yl)ethynyl)benzyl)-3,6,13-trioxo-5-(1,1,1-trifluoro-2-methylpropan-2-yl)-2-oxa-4,7,11,12-tetraazahexadecan-14-yl)carbamate] | – | – | 3.66 | <0.11 | 0.27 | 1.35 |
| COC(=O)N[C@H](C(=O)N[C@@H](Cc1ccc(C#Cc2cnc(N3CC4CCC(C3)N4C3COC3)nc2)cc1)[C@@H](O)CN(Cc1c(F)cc(-c2cnc(N3CC4CCC(C3)N4C3COC3)nc2)cc1F)NC(=O)[C@@H](NC(=O)OC)C(C)(C)C(F)(F)F)C(C)(C)C(F)(F)F [Example 120, Methyl ((5S,8S,9S,14S)-11-(2,6-difluoro-4-(2-(8-(oxetan-3-yl)-3,8-diazabicyclo[3.2.1]octan-3-yl)pyrimidin-5-yl)benzyl)-16,16,16-trifluoro-9-hydroxy-15,15-dimethyl-8-(4-((2-(8-(oxetan-3-yl)-3,8-diazabicyclo[3.2.1]octan-3-yl)pyrimidin-5-yl)ethynyl)benzyl)-3,6,13-trioxo-5-(1,1,1-trifluoro-2-methylpropan-2-yl)-2-oxa-4,7,11,12-tetraazahexadecan-14-yl)carbamate] | – | – | 5.36 | 0.14 | 0.53 | – |
| COC(=O)N[C@H](C(=O)N[C@@H](Cc1ccc(C#Cc2cnc(N3CC4CCC(C3)N4C3COC3)nc2)cc1)[C@@H](O)CN(Cc1c(F)cc(-c2ccn(C(F)F)n2)cc1F)NC(=O)[C@@H](NC(=O)OC)C(C)(C)C)C(C)(C)C [Example 121, Methyl ((5S,8S,9S,14S)-5-(tert-butyl)-11-(4-(1-(difluoromethyl)-1H-pyrazol-3-yl)-2,6-difluorobenzyl)-9-hydroxy-15,15-dimethyl-8-(4-((2-(8-(oxetan-3-yl)-3,8-diazabicyclo[3.2.1]octan-3-yl)pyrimidin-5-yl)ethynyl)benzyl)-3,6,13-trioxo-2-oxa-4,7,11,12-tetraazahexadecan-14-yl)carbamate] | – | – | 3.31 | <0.11 | <0.18 | – |
